According to patent publication US9365572B2, “PI3K and/or mTOR inhibitor” (XUANZHU PHARMA CO., LTD., priority 2012, dated 2016):

Columns and labels:
Adrenergic α1A = Adrenergic α1A (Rattus norvegicus (Rat), UniProt P43140); assay: Radioligand binding assay No. 203100; conditions: test substance 10 μM, read-out: Inhibitory rate (%), Adrenergic α1A
Adrenergic α1D = Adrenergic α1D (Homo sapiens (Human), UniProt P25100); assay: Radioligand binding assay No. 203400; conditions: test substance 10 μM, read-out: Inhibitory rate (%), Adrenergic α1D
Bradykinin B2 = Bradykinin B2 (Homo sapiens (Human), UniProt P30411); assay: Radioligand binding assay No. 212620; conditions: test substance 10 μM, read-out: Inhibitory rate (%), Bradykinin B2
[1] = tested on: Calcium Channel L-Type, Benzothiazepine; assay: Radioligand binding assay No. 214510; conditions: test substance 10 μM; rat
[2] = tested on: Calcium Channel L-Type, Dihydropyridine; assay: Radioligand binding assay No. 214600; conditions: test substance 10 μM; rat
Glucocorticoid = Glucocorticoid (Homo sapiens (Human), UniProt P04150); assay: Radioligand binding assay No. 232030; conditions: test substance 10 μM, read-out: Inhibitory rate (%), Glucocorticoid
Glutamate, Kainate = assay: Radioligand binding assay No. 232700; conditions: test substance 10 μM; rat
[3] = target: Leukotriene, Cysteinyl CysLT1 (Homo sapiens (Human), UniProt Q9Y271); assay: Radioligand binding assay No. 250460; conditions: test substance 10 μM, read-out: Inhibitory rate (%), Leukotriene, Cysteinyl CysLT1
Muscarinic M2 = Muscarinic M2 (Homo sapiens (Human), UniProt P08172); assay: Radioligand binding assay No. 252710; conditions: test substance 10 μM, read-out: Inhibitory rate (%), Muscarinic M2
Muscarinic M3 = Muscarinic M3 (Homo sapiens (Human), UniProt P20309); assay: Radioligand binding assay No. 252810; conditions: test substance 10 μM, read-out: Inhibitory rate (%), Muscarinic M3
Neuropeptide Y Y1 = Neuropeptide Y Y1 (Homo sapiens (Human), UniProt P25929); assay: Radioligand binding assay No. 257010; conditions: test substance 10 μM, read-out: Inhibitory rate (%), Neuropeptide Y Y1
[4] = target: Nicotinic Acetylcholine α1, Bungarotoxin (Homo sapiens (Human), UniProt P02708+P07510+Q07001); assay: Radioligand binding assay No. 258700; conditions: read-out: Inhibitory rate (%), Nicotinic Acetylcholine α1, Bungarotoxin
Phorbol Ester = assay: Radioligand binding assay No. 264500; conditions: test substance 10 μM; mouse
Prostanoid EP4 = Prostanoid EP4 (Homo sapiens (Human), UniProt P35408); assay: Radioligand binding assay No. 268420; conditions: test substance 10 μM, read-out: Inhibitory rate (%), Prostanoid EP4
[5] = target: Transporter, Dopamine (DAT) (Homo sapiens (Human), UniProt Q01959); assay: Radioligand binding assay No. 220320; conditions: test substance 10 μM, read-out: Inhibitory rate (%), Transporter, Dopamine (DAT)
A549 = assay: In vitro cytological inhibitory activity (XTT); assay type: cell-based; conditions: Homo sapiens, 72 hrs
Description: A549: Human lung cancer cell line;
(§1) 1. Preparation of agents and compounds:
(§2) • 1.1 Preparation of phosphoric acid buffering solution (PBS): 8 g NaCl, 0.2 g KCl, 1.44 g Na2HPO4 and 0.24 g KH2PO4 were weighed and added to 800 mL ultrapure water. The mixture was adjusted to pH=7.4, and ultrapure water was added to the metered volume of IL. Then the autoclaving was conducted for 20 mins. • 1.2 Preparation of XTT detection working solution: 100 mg (2,3-Bis-(2-methoxy-4-nitro-5-sulfophenyl)-2H-tetrazolium-5-carboxanilide); 2,3-bis(2-methoxy-4-nitro-5-sulfophenyl)-5-[(phenylamino)carbonyl]-2H-tetrazolium hydroxide (XTT) powder was weighed, and dissolved under protection from light 300 mL of phenol red-free and serum-free RPMI1640 culture, which had been warmed up to 50° C. The resulting mixture was filtered, packaged and used immediately or in one week. The complete process was conducted under protection from light. • 1.3 Preparation of the test compound • Preparation of the stock solution of the test compound: The test compound powder was dissolved in DMSO in a concentration of 10 mM. • Preparation of the gradiently diluted solution of the test compound: 10 mM of the stock solution of the test compound was successively and gradiently diluted with DMSO by 4 folds for 10 concentrations. […]

SKOV-3 = assay: In vitro cytological inhibitory activity (XTT); assay type: cell-based; conditions: Homo sapiens, SK-OV-3, 72 hrs
Description: SKOV-3: Human ovarian cancer cell line;
as §1, §2

Sequence of Neuropeptide Y Y1 (P25929 whole entry): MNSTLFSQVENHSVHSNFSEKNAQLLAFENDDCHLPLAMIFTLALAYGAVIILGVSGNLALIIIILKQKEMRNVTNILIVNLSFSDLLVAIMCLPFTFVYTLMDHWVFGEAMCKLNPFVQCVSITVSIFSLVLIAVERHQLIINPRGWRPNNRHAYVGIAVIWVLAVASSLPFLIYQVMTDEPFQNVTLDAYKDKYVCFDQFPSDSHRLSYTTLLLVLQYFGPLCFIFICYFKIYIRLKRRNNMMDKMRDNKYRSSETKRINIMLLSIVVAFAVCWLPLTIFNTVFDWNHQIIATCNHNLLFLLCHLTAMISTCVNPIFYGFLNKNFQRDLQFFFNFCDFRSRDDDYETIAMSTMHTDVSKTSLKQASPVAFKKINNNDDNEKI
Sequence of Muscarinic M3 (P20309 whole entry): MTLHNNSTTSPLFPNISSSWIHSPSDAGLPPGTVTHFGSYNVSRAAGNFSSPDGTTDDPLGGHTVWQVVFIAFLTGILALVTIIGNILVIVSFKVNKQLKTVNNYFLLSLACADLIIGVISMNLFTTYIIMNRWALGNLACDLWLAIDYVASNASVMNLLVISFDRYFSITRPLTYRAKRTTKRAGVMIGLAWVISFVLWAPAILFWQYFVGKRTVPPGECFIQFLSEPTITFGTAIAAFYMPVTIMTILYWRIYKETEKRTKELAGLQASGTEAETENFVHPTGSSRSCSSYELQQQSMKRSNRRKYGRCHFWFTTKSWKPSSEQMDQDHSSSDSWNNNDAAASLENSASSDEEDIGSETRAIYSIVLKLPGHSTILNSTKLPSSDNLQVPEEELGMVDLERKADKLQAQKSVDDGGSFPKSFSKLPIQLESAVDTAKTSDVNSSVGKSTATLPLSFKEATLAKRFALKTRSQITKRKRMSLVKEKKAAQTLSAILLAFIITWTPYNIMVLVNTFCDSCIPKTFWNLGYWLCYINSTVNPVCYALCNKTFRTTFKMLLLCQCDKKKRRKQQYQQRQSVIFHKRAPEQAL
Sequence of Glucocorticoid (P04150 whole entry): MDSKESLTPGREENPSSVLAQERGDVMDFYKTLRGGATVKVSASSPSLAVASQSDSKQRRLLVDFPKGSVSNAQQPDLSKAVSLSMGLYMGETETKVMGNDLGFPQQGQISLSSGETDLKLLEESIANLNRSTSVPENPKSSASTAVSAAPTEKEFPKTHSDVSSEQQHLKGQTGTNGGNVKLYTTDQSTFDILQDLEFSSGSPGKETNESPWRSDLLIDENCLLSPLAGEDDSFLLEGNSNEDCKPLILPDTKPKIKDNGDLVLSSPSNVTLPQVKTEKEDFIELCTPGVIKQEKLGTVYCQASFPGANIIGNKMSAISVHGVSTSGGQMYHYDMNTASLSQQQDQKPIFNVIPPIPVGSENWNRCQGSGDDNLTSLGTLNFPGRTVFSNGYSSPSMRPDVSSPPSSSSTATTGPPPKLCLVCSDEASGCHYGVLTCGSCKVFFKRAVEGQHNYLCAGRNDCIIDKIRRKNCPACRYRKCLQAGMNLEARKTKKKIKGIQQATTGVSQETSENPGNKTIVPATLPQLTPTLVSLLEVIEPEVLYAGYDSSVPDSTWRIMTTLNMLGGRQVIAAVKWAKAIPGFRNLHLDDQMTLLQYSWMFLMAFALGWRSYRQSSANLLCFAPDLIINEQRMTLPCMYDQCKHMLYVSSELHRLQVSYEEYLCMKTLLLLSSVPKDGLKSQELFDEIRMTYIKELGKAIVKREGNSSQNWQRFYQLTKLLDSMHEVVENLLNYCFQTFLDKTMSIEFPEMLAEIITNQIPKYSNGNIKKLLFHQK
Sequence of Transporter, Dopamine (DAT) (Q01959 whole entry): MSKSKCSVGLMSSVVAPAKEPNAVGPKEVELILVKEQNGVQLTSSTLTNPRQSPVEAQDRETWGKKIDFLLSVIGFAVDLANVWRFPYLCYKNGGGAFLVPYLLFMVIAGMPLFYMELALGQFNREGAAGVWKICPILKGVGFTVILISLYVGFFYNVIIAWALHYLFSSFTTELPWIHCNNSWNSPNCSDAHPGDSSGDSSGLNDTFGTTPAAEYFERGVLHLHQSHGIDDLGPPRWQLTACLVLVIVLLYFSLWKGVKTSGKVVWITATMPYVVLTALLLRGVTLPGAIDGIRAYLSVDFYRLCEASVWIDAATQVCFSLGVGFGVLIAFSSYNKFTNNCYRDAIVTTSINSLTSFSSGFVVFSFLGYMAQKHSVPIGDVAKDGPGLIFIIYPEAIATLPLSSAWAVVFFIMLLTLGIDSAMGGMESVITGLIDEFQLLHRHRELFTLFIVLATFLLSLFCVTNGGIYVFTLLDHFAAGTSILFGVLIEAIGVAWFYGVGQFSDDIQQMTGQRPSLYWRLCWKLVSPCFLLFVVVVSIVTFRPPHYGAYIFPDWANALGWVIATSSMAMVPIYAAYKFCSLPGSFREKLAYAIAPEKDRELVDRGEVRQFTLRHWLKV
Sequence of Adrenergic α1D (P25100 whole entry): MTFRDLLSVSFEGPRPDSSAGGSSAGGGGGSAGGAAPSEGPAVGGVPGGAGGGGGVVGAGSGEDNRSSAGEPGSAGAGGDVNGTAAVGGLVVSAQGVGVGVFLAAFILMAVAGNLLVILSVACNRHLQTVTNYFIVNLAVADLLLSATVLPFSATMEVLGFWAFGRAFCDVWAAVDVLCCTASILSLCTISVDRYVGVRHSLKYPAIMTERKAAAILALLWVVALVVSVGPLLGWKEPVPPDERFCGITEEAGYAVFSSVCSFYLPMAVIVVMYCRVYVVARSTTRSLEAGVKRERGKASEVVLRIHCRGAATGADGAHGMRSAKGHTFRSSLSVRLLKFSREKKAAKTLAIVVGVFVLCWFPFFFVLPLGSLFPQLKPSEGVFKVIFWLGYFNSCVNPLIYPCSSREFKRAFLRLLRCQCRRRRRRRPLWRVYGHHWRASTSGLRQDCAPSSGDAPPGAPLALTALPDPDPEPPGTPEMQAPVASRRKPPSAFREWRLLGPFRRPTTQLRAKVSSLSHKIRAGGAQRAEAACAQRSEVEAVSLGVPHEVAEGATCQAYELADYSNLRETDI
Sequence of Muscarinic M2 (P08172 whole entry): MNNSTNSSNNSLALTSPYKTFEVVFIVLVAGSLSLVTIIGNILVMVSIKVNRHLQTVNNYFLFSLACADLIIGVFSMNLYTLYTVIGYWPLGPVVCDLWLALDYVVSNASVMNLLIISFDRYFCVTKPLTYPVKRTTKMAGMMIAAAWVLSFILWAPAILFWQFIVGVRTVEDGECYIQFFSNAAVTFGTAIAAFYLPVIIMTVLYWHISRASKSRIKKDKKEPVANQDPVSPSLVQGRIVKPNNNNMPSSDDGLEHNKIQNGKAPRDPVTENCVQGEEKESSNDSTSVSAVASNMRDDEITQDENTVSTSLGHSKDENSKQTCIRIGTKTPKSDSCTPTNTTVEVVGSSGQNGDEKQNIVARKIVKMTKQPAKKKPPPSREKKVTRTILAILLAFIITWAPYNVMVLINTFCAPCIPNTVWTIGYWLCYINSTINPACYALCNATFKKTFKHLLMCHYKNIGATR
Sequence of Leukotriene, Cysteinyl CysLT1 (Q9Y271 whole entry): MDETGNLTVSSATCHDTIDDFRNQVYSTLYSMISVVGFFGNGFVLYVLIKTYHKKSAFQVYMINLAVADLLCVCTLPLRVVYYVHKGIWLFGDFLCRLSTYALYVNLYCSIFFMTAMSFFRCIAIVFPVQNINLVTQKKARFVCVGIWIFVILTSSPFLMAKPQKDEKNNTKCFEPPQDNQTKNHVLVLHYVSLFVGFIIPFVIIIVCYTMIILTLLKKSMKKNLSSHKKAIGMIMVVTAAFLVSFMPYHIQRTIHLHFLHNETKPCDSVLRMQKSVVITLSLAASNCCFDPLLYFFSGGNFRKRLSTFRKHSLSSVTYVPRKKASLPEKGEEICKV
Sequence of Bradykinin B2 (P30411 whole entry): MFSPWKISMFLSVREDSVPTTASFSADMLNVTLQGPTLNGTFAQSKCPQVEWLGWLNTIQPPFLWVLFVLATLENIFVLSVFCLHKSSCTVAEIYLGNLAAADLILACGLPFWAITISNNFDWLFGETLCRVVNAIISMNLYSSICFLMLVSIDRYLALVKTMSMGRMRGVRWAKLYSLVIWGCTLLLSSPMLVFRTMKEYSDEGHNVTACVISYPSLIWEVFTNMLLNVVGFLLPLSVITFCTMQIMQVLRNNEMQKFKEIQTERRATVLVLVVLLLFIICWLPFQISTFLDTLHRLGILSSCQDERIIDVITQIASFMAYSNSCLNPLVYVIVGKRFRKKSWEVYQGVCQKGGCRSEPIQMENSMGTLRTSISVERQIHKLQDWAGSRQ
Sequence of Adrenergic α1A (P43140 whole entry): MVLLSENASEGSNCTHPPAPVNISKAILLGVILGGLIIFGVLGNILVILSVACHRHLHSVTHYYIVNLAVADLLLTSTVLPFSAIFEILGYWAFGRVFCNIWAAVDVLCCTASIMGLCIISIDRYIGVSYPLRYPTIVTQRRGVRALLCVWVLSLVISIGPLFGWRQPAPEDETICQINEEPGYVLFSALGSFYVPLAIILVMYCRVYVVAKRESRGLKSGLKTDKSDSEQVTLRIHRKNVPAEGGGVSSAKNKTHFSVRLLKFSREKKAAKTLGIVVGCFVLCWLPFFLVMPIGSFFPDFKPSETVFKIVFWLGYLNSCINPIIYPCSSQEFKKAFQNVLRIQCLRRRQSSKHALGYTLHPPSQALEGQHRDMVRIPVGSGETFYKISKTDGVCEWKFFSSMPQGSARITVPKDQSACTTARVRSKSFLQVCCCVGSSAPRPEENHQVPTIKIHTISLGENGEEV

Compound	inhibition at 10 µM (Adrenergic α1A)	inhibition at 10 µM (Adrenergic α1D)	inhibition at 10 µM (Bradykinin B2)	Inhibitory rate (%), Calcium Channel L-Type, Benzothiazepine [1]	Inhibitory rate (%), Calcium Channel L-Type, Dihydropyridine [2]	inhibition at 10 µM (Glucocorticoid)	Inhibitory rate (%), Glutamate, Kainate (Glutamate, Kainate)	inhibition at 10 µM [3]	inhibition at 10 µM (Muscarinic M2)	inhibition at 10 µM (Muscarinic M3)	inhibition at 10 µM (Neuropeptide Y Y1)	inhibition at 10 µM [4]	Inhibitory rate (%), Phorbol Ester (Phorbol Ester)	inhibition at 10 µM (Prostanoid EP4)	inhibition at 10 µM [5]	IC50 (A549)	IC50 (SKOV-3)
Nc1ccc(-c2ccc3ncc4c(=O)[nH]c(=O)n(-c5cccc(C(F)(F)F)c5)c4c3n2)cn1 [Compound 5, 9-(6-aminopyridin-3-yl)-1-(3-(trifluoromethyl)phenyl)pyrimido[5,4-c][1,5]naphthyridine-2,4(1H,3H)-dione]	13%	9%	24%	15%	56%	-4%	35%	-1%	-4%	13%	3%	4%	27%	19%	1%	–	–
O=c1[nH]c(=O)n(-c2cccc(C(F)(F)F)c2)c2c1cnc1ccc(-c3cnc4[nH]ccc4c3)nc12 [Compound 30, 9-(1H-pyrrolo[2,3-b]pyridin-5-yl)-1-(3-(trifluoromethyl)phenyl)pyrimido[5,4-c][1,5]naphthyridine-2,4(1H,3H)-dione]	–	–	–	–	–	–	–	–	–	–	–	–	–	–	–	107 nM	57.2 nM
